This note sets out measurements from patent US20260284069A1, “PARG INHIBITORY COMPOUNDS” (FoRx Therapeutics AG, priority 2023, published 2026).

In one test the target is T1, PARG (Homo sapiens, UniProt Q86W56).
T1 construct: endogenous in cells; host or cells: U2OS
The test is described as follows: Cellular PAR chain assay. The class given is cell-based. The following applies: U2OS cells, 1 hour compound pretreatment then 1-hour TMZ treatment; % PAR chain positive cells by flow cytometry; read-out: EC50 determined in cellular PAR chain assay. How it is done:
The ability of compounds to inhibit PARG in response to DNA damage, was assessed with U2OS cells pretreated with the compounds for 1 hour, following a 1-hour treatment with the DNA alkylating agent temozolomide (TMZ). […] The cells were incubated for 2 hours at room temperature with a mouse monoclonal antibody against poly (ADP) ribose (PAR) polymer. The cells were washed and incubated with an anti-mouse Alexa-488 conjugated secondary antibody for 1 hour at room temperature. Propidium iodide staining was used to determine DNA content in the cells (staining at 4° C. overnight). The fluorescence intensity of the cells was assessed by flow cytometry (Cytoflex from Beckmann) and the percentage of PAR chain positive cells (gated in relation to TMZ+DMSO treated control) was determined. PAR chain positive cells % were fit against the concentration of the compound using a 4 parameter log-logistic function, generating PAR chain EC50 values: […]
On the technique in general: Flow cytometry measures light scatter and fluorescence of single cells or particles in a stream.

Another test concerns U2OS cells. The test is described as follows: Cellular viability assay (U2OS, PARG-inhibition insensitive cell line). In kind it is cell-based. The settings on record: Homo sapiens, U2OS, 96 h, 96 hours incubation, Cell Titer-Glo, read-out: EC50 determined in U2OS cells, cellular viability assay. How it is done: (§1) NCIH-460 as a PARG-inhibition sensitive cell line and U2OS as PARG-inhibition insensitive cell line were plated at 1000 cells/well and 2000 cells/well, respectively, in 96-well white plates with clear flat bottom. After 24 hours, the compounds were added with the Tecan digital dispenser (D300e), in duplicates. The outer wells of the plate were excluded. After 96 hours of incubation, 150 μl of the growth medium were removed and 50 μl of Cell Titer-Glo (Promega) were added per well. Following an incubation of 10 minutes, luminescence was read using a plate reader (Tecan). Averaged values of the samples were normalized to DMSO treated control samples. Curves were fit as % of the control vs. log of the compound concentration using a 4 parameter log-logistic function: […]

In another test the test system is NCIH-460 cells. The test is described as follows: Cellular viability assay (NCIH-460, PARG-inhibition sensitive cell line). The class given is cell-based. The settings on record: Homo sapiens, NCI-H460, 96 h, 96 hours incubation, Cell Titer-Glo, read-out: EC50 determined in NCIH-460 cells, cellular viability assay. How it is done:
as §1
(ATP-based viability assays read luminescence as a measure of living cells.)

Another test concerns the target T2, human PARG (Homo sapiens, UniProt Q86W56, A967T/C963S/D927K/H446G/I916T/L447S/L473S/M841I/N479S/R811K/S802A/S858P/T924D).
T2 construct: human PARG (448-976 [H446G, L447S, L473S); 6His-TwinStrep (protease-cleavable) (N, cleaved yes); Gly-Ser at positions 446-447, given as H446G, L447S; host or cells: E. coli BL21 (DE3)
The test is described as follows: PARG enzymatic IC50 assay. The settings on record: PARG protein, 2 hours incubation; substrate ADP-ribose-pNP, absorbance 405 nm; read-out: IC50 determined in PARG enzymatic assay. The class given is biochemical. How it is done:
A codon optimized gene encoding human PARG (448-976 [H446G, L447S, L473S, N479S, S802A, R811K, M841I, S858P, I916T, T924D, D927K, C963S, A967T]) was synthesized by Genscript, and cloned into pET15b (NcoI/BamHI) with an N-terminal, […] protease cleavable 6His-TwinStrep tag. Expression of the protein in E. coli BL21 (DE3) was induced by addition of 0.2 mM IPTG to a shake flask culture grown to OD600=0.8 at 37° C. Growth was allowed to continue at 30° C. for a further 20 hours before harvesting by centrifugation and storage of the cell pellet at −80° C.
Protein was purified by IMAC and SEC: frozen cell pellets (typically 40 g wet weight) were resuspended by homogenization in 5 volumes buffer A (25 mM Tris/HCl pH 8.0, 200 mM NaCl, 2 mM DTT), supplemented with 1 mg of DNase I from bovine pancreas (Sigma-Aldrich) and protease inhibitors (Roche Complete™ EDTA-free protease inhibitor tablet), and lysed by passage through a Constant Systems BasicZ homogenizer. The lysate was clarified by centrifugation for 60 minutes at 25,000 g, 4° C., and the lysate supernatant was loaded onto 5 ml StrepTrap HP (Cytiva) pre-equilibrated with buffer A. The column was washed with buffer A (~10 CV), then buffer B containing 1M KCl (~5 CV), and then the protein was eluted with buffer A containing 2.5 mM d-Desthiobiotin. Pooled fractions containing 6HisTwinStrep-TEV-hPARG were incubated with TEV protease overnight at 4° C. hPARG was separated from uncleaved material and […] protease through gel filtration with Superdex75 sizing column (GE Healthcare) pre-equilibrated with SEC buffer (15 mM Tris/HCl pH 8.5, 100 mM NaCl, 2 mM DTT). Pooled fractions containing pure hPARG were concentrated using a 10 k MWCO spin concentrator (VivaSpin) to 10 mg/mL, and then either used immediately for crystallisation or snap-frozen in liquid nitrogen for storage at −80° C.
PARG enzyme as incubated with compound or vehicle (DMSO) for 2 hours in a 384 well plate. After adding the PARG substrate ADP-ribose-pNP, the plate was read for absorbance intensity at 405 nm. The vehicle (DMSO) with high absorbance intensity represents no inhibition of enzymatic reaction while the low control (no enzyme) with low absorbance intensity represents full inhibition of enzymatic reaction.
• hPARG: Peak Protein, 30 nM • Substrate: ADP-pNP, 800 μM, Jena Bioscience catalog #NU-955 • Reaction time: 60 minutes • Assay buffer: 50 mM Tris-HCl pH 8.0, 100 mM NaCl, 2 mM DTT • Temperature: 30° C. • Total volume: 30 μL
• 0% inhibition control: DMSO • 100% inhibition control: No enzyme
The protocol that was used for enzyme reaction and detection is as follows: • 1. Transfer 100 nL of the final concentration of test compounds or vehicle (DMSO) to the appropriate wells of a microtiter plate. • 2. Centrifuge the plate at 1000 rpm for 1 minute. • 3. Transfer 14.6 μL of 2× final concentration of enzyme in assay buffer or assay buffer alone to the appropriate wells. • 4. Centrifuge the plate at 1000 rpm for 1 minute. • 5. Incubate the plate at room temperature for 15 minutes or 2 hours. • 6. Transfer 15.4 μL of 2× substrate in assay buffer to all the test wells. • 7. Centrifuge the plate at 1000 rpm for 1 minute. • 8. Read the plate on a plate reader (e.g., Spark Tecan).

pEC50, pIC50: −log10 of the molar value.

T2 sequence (Q86W56 446-976 H446G/L447S/L473S/N479S/S802A/R811K/M841I/S858P/I916T/T924D/D927K/C963S/A967T): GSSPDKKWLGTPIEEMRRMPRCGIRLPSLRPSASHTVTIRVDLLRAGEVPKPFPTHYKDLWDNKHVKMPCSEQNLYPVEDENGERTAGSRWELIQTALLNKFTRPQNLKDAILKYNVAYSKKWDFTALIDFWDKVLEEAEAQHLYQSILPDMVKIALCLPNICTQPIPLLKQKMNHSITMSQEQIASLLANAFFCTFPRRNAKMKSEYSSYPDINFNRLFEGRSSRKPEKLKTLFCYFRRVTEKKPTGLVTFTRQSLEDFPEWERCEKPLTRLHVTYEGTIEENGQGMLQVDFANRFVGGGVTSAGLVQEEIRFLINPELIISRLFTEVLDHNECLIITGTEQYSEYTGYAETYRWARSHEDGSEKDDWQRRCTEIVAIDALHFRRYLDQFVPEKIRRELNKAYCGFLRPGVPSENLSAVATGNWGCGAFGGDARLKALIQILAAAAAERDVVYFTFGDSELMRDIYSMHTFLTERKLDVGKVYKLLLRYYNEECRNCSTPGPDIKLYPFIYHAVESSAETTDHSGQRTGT
T1 sequence (Q86W56 whole entry): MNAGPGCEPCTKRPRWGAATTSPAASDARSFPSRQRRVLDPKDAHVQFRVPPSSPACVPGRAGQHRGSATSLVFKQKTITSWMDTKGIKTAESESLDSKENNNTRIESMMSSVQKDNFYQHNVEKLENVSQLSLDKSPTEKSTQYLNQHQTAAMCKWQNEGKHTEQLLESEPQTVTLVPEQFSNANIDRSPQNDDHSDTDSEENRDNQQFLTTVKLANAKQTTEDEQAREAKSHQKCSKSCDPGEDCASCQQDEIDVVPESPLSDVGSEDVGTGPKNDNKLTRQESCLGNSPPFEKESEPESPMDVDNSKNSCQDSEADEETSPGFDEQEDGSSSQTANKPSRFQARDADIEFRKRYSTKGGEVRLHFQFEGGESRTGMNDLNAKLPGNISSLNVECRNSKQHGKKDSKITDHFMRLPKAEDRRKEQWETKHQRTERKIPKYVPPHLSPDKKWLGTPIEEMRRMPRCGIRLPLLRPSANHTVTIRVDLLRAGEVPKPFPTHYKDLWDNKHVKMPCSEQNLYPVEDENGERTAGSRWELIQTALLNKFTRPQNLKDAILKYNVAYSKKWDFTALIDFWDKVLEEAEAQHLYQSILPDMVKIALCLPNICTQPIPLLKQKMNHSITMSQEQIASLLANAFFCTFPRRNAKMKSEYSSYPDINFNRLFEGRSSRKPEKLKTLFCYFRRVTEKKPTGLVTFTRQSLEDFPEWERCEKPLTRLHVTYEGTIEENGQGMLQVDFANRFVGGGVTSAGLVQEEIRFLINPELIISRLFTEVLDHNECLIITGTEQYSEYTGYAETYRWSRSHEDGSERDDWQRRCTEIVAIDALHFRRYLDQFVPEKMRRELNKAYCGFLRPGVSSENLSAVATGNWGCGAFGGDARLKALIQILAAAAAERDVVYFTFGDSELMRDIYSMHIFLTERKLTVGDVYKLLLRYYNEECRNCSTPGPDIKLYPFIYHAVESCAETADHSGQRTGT

Usually pEC50 stands for the EC50 on a negative log10 scale, so that one unit is a factor of ten. Broadly, the pIC50 is −log10 of the IC50, conventionally taken in molar units. As for `C[C@H]1CN(c2cc(S(=O)(=O)NC3(C)CC3)cn3c(-c4nnc(C(F)F)s4)nc(F)c23)C[C@H](C)N1` [Example 13, 3-(5-(difluoromethyl)-1,3,4-thiadiazol-2-yl)-8-((3S,5S)-3,5-dimethylpiperazin-1-yl)-1-fluoro-N-(1-methylcyclopropyl)imidazo[1,5-a]pyridine-6-sulfonamide], the pEC50 on PARG was 8.30; in the test with U2OS cells it was 5.44; in the test on NCIH-460 cells it was 7.46. Further, the pIC50 at human PARG is 7.80.
